What was measured:
[1] = biological target: T1, recombinant BACE1 protein (Homo sapiens, UniProt P56817); experiment: BACE1 biochemical FRET based assay; settings: 450 min at room temperature; for IC50: pH 5.0, read-out: Biochemical FRET based assay pIC50 (converted)
T1 construct: recombinant BACE1 protein in a final concentration of 0.04 μg/ml
Source text: (§1) This assay is a Fluorescence Resonance Energy Transfer Assay (FRET) based assay. The substrate for this assay is an APP derived 13 amino acids peptide that contains the ‘Swedish’ Lys-Met/Asn-Leu mutation of the amyloid precursor protein (APP) beta-secretase cleavage site. This substrate also contains two fluorophores: (7-methoxycoumarin-4-yl) acetic acid (Mca) is a fluorescent donor with excitation wavelength at 320 nm and emission at 405 nm and 2,4-Dinitrophenyl (Dnp) is a proprietary quencher acceptor. […] Upon cleavage by BACE1, the fluorophore Mca is separated from the quenching group Dnp, restoring the full fluorescence yield of the donor. The increase in fluorescence is linearly related to the rate of proteolysis.
Briefly in a 384-well format recombinant BACE1 protein in a final concentration of 0.04 μg/ml is incubated for 450 minutes at room temperature with 20 μM substrate in incubation buffer (50 mM Citrate buffer pH 5.0, 0.05% PEG) in the presence of compound or DMSO. Next the amount of proteolysis is directly measured by fluorescence measurement (excitation at 320 nm and emission at 405 nm) at different incubation times (0, 30, 60, 90, 120 and 450 min). For every experiment a time curve (every 30 min between 0 min and 120 min) is used to determine the time where we find the lowest basal signal of the high control. The signal at this time (Tx) is used to subtract from the signal at 450 min. Results are expressed in RFU, as difference between T450 and Tx.
(§2) A best-fit curve is fitted by a minimum sum of squares method to the plot of % Controlmin versus compound concentration. From this an IC50 value (inhibitory concentration causing 50% inhibition of activity) can be obtained.

[2] = system: Abeta 1-42 produced and secreted by human neuroblastoma SKNBE2 cells expressing hAPP695; experiment: Cellular αLisa assay in SKNBE2 cells, Abeta 1-42; assay type: cell-based; settings: 18 hours incubation; for IC50: Homo sapiens, SKNBE2, 18 h, read-out: Cellular αLisa assay in SKNBE2 cells Abeta 42 pIC50 (converted)
Description: (§3) Cellular αLisa Assay in Sknbe2 Cells In two αLisa assays the levels of Abeta total and Abeta 1-42 produced and secreted into the medium of human neuroblastoma SKNBE2 cells are quantified. The assay is based on the human neuroblastoma SKNBE2 expressing the wild type Amyloid Precursor Protein (hAPP695). The compounds are diluted and added to these cells, incubated for 18 hours and then measurements of Abeta 1-42 and Abeta total are taken. Abeta total and Abeta 1-42 are measured by sandwich αLisa. αLisa is a sandwich assay using biotinylated antibody AbN/25 attached to streptavidin coated beads and antibody Ab4G8 or cAb42/26 conjugated acceptor beads for the detection of Abeta total and Abeta 1-42 respectively. In the presence of Abeta total or Abeta 1-42, the beads come into close proximity. The excitation of the donor beads provokes the release of singlet oxygen molecules that trigger a cascade of energy transfer in the acceptor beads, resulting in light emission. Light emission is measured after 1 hour incubation (excitation at […] and emission at 615 nm).
as §2

[3] = biological target: T2, recombinant BACE2 protein (Homo sapiens, UniProt Q9Y5Z0); experiment: BACE2 biochemical FRET based assay; settings: 450 min at room temperature; for IC50: pH 5.0, read-out: Biochemical FRET based assay pIC50 (converted)
T2 construct: recombinant BACE2 protein in a final concentration of 0.4 μg/ml
T2 sequence (Q9Y5Z0 63-518): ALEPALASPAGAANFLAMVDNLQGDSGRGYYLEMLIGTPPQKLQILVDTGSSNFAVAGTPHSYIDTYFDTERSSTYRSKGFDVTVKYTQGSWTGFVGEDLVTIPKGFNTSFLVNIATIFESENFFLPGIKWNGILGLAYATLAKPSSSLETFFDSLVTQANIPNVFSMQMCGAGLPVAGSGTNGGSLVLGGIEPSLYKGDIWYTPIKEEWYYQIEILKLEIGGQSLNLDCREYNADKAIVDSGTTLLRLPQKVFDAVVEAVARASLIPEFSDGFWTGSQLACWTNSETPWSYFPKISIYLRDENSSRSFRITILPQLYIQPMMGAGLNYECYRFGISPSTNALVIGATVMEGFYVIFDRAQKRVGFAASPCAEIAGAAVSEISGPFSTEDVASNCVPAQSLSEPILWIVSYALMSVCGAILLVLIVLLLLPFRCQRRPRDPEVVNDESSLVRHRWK
Source text: as §1, with “assay” for “assay is an APP derived 13 amino acids peptide that”, “the beta-secretase,” for “BACE1,”
Briefly in a 384-well format recombinant BACE2 protein in a final concentration of 0.4 μg/ml is incubated for 450 minutes at room temperature with […] substrate in incubation buffer (50 mM Citrate buffer pH 5.0, 0.05% PEG, no DMSO) in the absence or presence of compound. Next the amount of proteolysis is directly measured by fluorescence measurement at T=0 and T=450 (excitation at 320 nm and emission at 405 nm). Results are expressed in RFU (Relative Fluorescence Units), as difference between T450 and TO.
as §2

[4] = system: Abeta total produced and secreted by human neuroblastoma SKNBE2 cells expressing hAPP695; experiment: Cellular αLisa assay in SKNBE2 cells, Abeta total; assay type: cell-based; settings: 18 hours incubation, read-out: Cellular αLisa assay in SKNBE2 cells Abeta total pIC50 (converted)
Description: as §3, §2

β-secretase I (BACE1) = β-secretase I (BACE1) (Homo sapiens, UniProt P56817); experiment: Automated (CyclOps) biochemical assay BACE1
β-secretase II (BACE2) = biological target: T3, β-secretase II (BACE2) (Homo sapiens, UniProt Q9Y5Z0); experiment: Automated (CyclOps) biochemical assay BACE2
T3 sequence (Q9Y5Z0 63-518): T2 sequence (Q9Y5Z0 63-518)

Chain of β-secretase I (BACE1) (P56817 46-501): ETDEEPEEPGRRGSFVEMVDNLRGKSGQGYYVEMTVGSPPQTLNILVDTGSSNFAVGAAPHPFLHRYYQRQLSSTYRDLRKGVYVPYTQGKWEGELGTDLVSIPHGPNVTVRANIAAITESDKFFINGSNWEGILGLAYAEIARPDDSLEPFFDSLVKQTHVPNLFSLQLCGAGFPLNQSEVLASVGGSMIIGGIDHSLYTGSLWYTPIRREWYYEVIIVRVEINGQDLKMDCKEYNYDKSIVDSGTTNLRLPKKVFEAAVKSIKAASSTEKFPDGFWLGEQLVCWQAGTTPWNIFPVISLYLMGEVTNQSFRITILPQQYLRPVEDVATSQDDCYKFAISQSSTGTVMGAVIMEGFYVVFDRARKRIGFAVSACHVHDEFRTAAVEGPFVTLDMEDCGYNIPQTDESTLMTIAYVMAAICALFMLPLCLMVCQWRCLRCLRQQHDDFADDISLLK
T1 sequence (P56817 46-501): as above

Row | Biochemical FRET based assay pIC50 ([1]; pH 5.0) | IC50 [2] [nM] | Biochemical FRET based assay pIC50 ([3]; pH 5.0) | IC50 [1] [nM] | IC50 [4] [nM] | IC50 [3] [nM] | IC50 (β-secretase I (BACE1)) [nM] | IC50 (β-secretase II (BACE2)) [nM] | Cellular αLisa assay in SKNBE2 cells Abeta 42 pIC50 [2] | SMILES
1 | 7.12 | 9.55 | 6.77 | – | – | – | – | – | – | COc1ncc(C(=O)NC2CC2)c2c1C[C@]1(c3ccc(F)cc3F)N=C(N)SC[C@@H]1C2 [Compound 1]
2 | – | 19.1 | – | 66.1 | 22.9 | 166 | 39.8 | 72.4 | – | COc1ncc(C(=O)NC2CC2)c2c1C[C@]1(c3ccc(F)cc3F)N=C(N)SC[C@@H]1C2 [Compound 1a]
3 | – | 47.9 | – | 219 | – | 1510 | – | – | – | COc1ncc(C(=O)N2CCOCC2)c2c1C[C@]1(c3ccc(F)cc3F)N=C(N)SC[C@@H]1C2 [Compound 2]
4 | – | 46.8 | – | 240 | 50.1 | 1450 | 57.5 | 324 | – | COc1ncc(C(=O)N2CCOCC2)c2c1CC1(c3ccc(F)cc3F)N=C(N)SCC1C2 (stereo not shown) [Compound 2a]
5 | – | 56.2 | – | 75.9 | – | 282 | – | – | – | COc1ncc(C(=O)Nc2cccnc2)c2c1C[C@]1(c3ccc(F)cc3F)N=C(N)SC[C@@H]1C2 [Compound 3]
6 | – | 85.1 | – | 129 | – | 1100 | 34.7 | 355 | – | COc1ncc(C(=O)N2CCC(C#N)CC2)c2c1C[C@]1(c3ccc(F)cc3F)N=C(N)SC[C@@H]1C2 [Compound 22]
7 | – | 28.8 | – | 20.4 | – | 977 | – | – | – | COc1ncc(C(=O)N2CCC(c3ccncc3)C2)c2c1C[C@]1(c3ccc(F)cc3F)N=C(N)SC[C@@H]1C2 (stereo partly shown) [Compound 28]
8 | – | – | – | 29.5 | – | 355 | – | – | 7.31 | COc1ncc(CNC(=O)c2ccncc2)c2c1C[C@]1(c3ccc(F)cc3F)N=C(N)SC[C@@H]1C2 [Compound 30]
9 | – | – | – | 66.1 | 81.3 | 692 | 41.7 | 468 | 7 | COc1ncc(CNC(=O)c2ccncc2)c2c1C[C@]1(c3ccc(F)cc3F)N=C(N)SC[C@@H]1C2 [Compound 30a]
10 | – | 33.1 | – | 81.3 | – | 105 | – | – | – | COc1ncc(CNC(=O)C2CC2)c2c1C[C@]1(c3ccc(F)cc3F)N=C(N)SC[C@@H]1C2 [Compound 31]
11 | – | – | – | 112 | 43.7 | 126 | 70.8 | 87.1 | 7.39 | COc1ncc(CNC(=O)C2CC2)c2c1C[C@]1(c3ccc(F)cc3F)N=C(N)SC[C@@H]1C2 [Compound 31a]
12 | – | – | – | 110 | – | 309 | – | – | 7.41 | COc1ncc(CNC(=O)c2cc(C)no2)c2c1C[C@]1(c3ccc(F)cc3F)N=C(N)SC[C@@H]1C2 [Compound 32]
13 | – | – | – | 182 | 95.5 | 589 | 63.1 | 174 | 7.07 | COc1ncc(CNC(=O)c2cc(C)no2)c2c1C[C@]1(c3ccc(F)cc3F)N=C(N)SC[C@@H]1C2 [Compound 32a]
14 | – | 16.6 | – | 21.9 | – | 200 | 12.2 | 72.4 | – | COc1ncc(CNC(=O)c2nccnc2Cl)c2c1C[C@]1(c3ccc(F)cc3F)N=C(N)SC[C@@H]1C2 [Compound 48]

— patent US20190389882A1, “INHIBITORS OF BETA SECRETASE” (Janssen Pharmaceutica NV, priority 2017, published 2019)
